Usually inhibition stands for the relative decrease from the control value, in per cent. A low value points to a response near the control. One may read the IC50 as the concentration that gives 50% inhibition. A lower IC50 goes with greater potency.

In one experiment the target is T1, M-phase inducer phosphatase 2 (Homo sapiens) (UniProt P30305).
T1 sequence (whole entry): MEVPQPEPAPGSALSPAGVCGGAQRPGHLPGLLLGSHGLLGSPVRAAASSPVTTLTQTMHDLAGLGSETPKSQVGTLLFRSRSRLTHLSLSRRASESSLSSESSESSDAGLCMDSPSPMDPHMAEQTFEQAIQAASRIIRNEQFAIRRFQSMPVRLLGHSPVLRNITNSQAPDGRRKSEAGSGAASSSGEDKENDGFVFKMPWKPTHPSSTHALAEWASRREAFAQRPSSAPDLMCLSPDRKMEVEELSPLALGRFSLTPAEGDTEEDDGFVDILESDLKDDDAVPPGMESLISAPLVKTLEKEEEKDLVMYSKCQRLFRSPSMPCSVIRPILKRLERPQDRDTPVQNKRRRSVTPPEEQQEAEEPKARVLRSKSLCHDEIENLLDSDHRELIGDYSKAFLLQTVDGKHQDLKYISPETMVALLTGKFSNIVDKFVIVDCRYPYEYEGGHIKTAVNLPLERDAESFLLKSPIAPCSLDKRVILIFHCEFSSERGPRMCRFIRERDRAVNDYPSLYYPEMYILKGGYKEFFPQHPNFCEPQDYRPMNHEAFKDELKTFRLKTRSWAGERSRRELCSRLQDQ
Kind of experiment: Inhibitory activity against Cell division cycle 25B at 100 uM.
`COc1cccc(COc2c(I)cc3c(c2I)CN(C(=O)/C=C/c2cccc(F)c2)[C@H](C(=O)O)C3)c1` yielded an inhibition of 41%.

On to `O=C(O)[C@@H]1Cc2cc(I)c(OCc3cccc(C(F)(F)F)c3)c(I)c2CN1C(=O)/C=C/c1ccc(Cl)cc1`, for which the inhibition was 22%.

`COc1cccc(COc2c(I)cc3c(c2I)CN(C(=O)/C=C/c2cc(OC)c(OC)c(OC)c2)[C@H](C(=O)O)C3)c1` registered an inhibition of 25%.

Consider `COc1cccc(COc2c(I)cc3c(c2I)CN(C(=O)/C=C/c2ccccc2F)[C@H](C(=O)O)C3)c1`, for which the inhibition amounted to 34%.

Consider `C/C(=C\c1ccccc1)C(=O)N1Cc2c(cc(I)c(OCCCCl)c2I)C[C@H]1C(=O)O`, for which the inhibition is 12%.

`N#C/C(=C\c1ccccc1)C(=O)N1Cc2c(cc(I)c(OCC(=O)OCc3ccccc3)c2I)C[C@H]1C(=O)O`: the inhibition is 36%.

`COc1cccc(COc2c(I)cc3c(c2I)CN(C(=O)/C=C/c2ccccc2C(F)(F)F)[C@H](C(=O)O)C3)c1` came in with an inhibition of 28%.

The compound `O=C(O)[C@@H]1Cc2cc(I)c(OCc3ccc(Cl)cc3Cl)c(I)c2CN1C(=O)/C=C/c1ccccc1F` came in with an inhibition of 32%.

As for `N#C/C(=C\c1ccccc1)C(=O)N1Cc2c(cc(I)c(OCCCCl)c2I)C[C@H]1C(=O)O`, the inhibition amounted to 11%.

Consider `N#C/C(=C\c1ccccc1)C(=O)N1Cc2c(cc(I)c(O)c2I)C[C@H]1C(=O)O`, for which the inhibition was found to be 12%.

Take `C/C(=C\c1ccccc1)C(=O)N1Cc2c(cc(I)c(OCC(=O)OCc3ccccc3)c2I)C[C@H]1C(=O)O`: the inhibition amounted to 24%.

The next experiment deals with T2, M-phase inducer phosphatase 2 (Homo sapiens, UniProt P30305).
T2 sequence (P30305 whole entry): T1 sequence (whole entry)
Kind of experiment: Compound was measured for its inhibitory activity against Cell division cycle 25B.
The compound `COc1cccc(COc2c(I)cc3c(c2I)CN(C(=O)/C=C/c2ccc([N+](=O)[O-])cc2)[C@H](C(=O)O)C3)c1` yielded an IC50 of 59 µM.

Compound `O=C(O)[C@@H]1Cc2cc(I)c(OCc3ccccc3F)c(I)c2CN1C(=O)c1cccnc1Cl` returned an IC50 of 90 µM. This IC50 is about 1.5-fold higher than that of the compound before.

For the origin of these results see ChEMBL document CHEMBL1133317, “The solid phase synthesis of tetrahydroisoquinolines having cdc25B inhibitory activity” (Bioorg Med Chem Lett, 2000).
